Reference: ChEMBL document CHEMBL1201862, “PubChem BioAssay data set” (2004)
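Test compounds were applied to cells in 96-well plates for 48 hours at 5 doses. At the GI50, growth is halved.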 Calls of active or inactive are those of the source. Rule as the data show it: active = GI50 up to about 1.1 µM and inactive = higher.

Columns and labels:
Assay in all cases: DTP human tumour cell line panel, 48 h
[1] = tested on: SK-MEL-5
[2] = tested on: UACC-257
[3] = tested on: A498
[4] = tested on: SK-MEL-28
[5] = tested on: SNB-75
[6] = tested on: NCI-H226
[7] = tested on: SK-OV-3
[8] = tested on: OVCAR-5
[9] = tested on: TK-10
[10] = tested on: HT-29
[11] = tested on: NCI-H460
[12] = tested on: HOP-62
[13] = tested on: A549
[14] = tested on: HCT-15
[15] = tested on: M14
[16] = tested on: U-251
[17] = tested on: K562
[18] = tested on: CCRF-CEM

## Cc1cccc(NC(=O)CC2C(=O)Nc3ccccc3S2(=O)=O)c1C (stereo unspecified)
[1]
  GI50: 28.6 µM (inactive)
[2]
  GI50: 26.9 µM (inactive)
[3]
  GI50: 30.3 µM (inactive)
[4]
  GI50: 77.6 µM (inactive)
[5]
  GI50: 16.9 µM (inactive)
[6]
  GI50: 25 µM (inactive)
[7]
  GI50: 21.9 µM (inactive)
[8]
  GI50: > 100 µM (inactive)
[9]
  GI50: 28.9 µM (inactive)
[10]
  GI50: 33.2 µM (inactive)
[11]
  GI50: 22.6 µM (inactive)
[12]
  GI50: 22.6 µM (inactive)
[13]
  GI50: 31.2 µM (inactive)
[14]
  GI50: 40.6 µM
[15]
  GI50: 25.4 µM (inactive)
[16]
  GI50: 27 µM (inactive)
[17]
  GI50: 9.18 µM (inactive)

## COCCCNC(=O)C1C(=O)N(CCCOC)C(=O)/C1=N\N (stereo unspecified)
[1]
  GI50: > 100 µM (inactive)
[2]
  GI50: > 100 µM (inactive)
[3]
  GI50: > 100 µM (inactive)
[4]
  GI50: > 100 µM (inactive)
[5]
  GI50: 38.3 µM (inactive)
[18]
  GI50: > 100 µM (inactive)
[8]
  GI50: > 100 µM (inactive)
[9]
  GI50: > 100 µM (inactive)
[10]
  GI50: > 100 µM (inactive)
[11]
  GI50: > 100 µM (inactive)
[12]
  GI50: > 100 µM (inactive)
[13]
  GI50: > 100 µM (inactive)
[14]
  GI50: > 100 µM
[15]
  GI50: > 100 µM (inactive)
[16]
  GI50: > 100 µM (inactive)
[17]
  GI50: > 100 µM (inactive)

## NCCCNCc1c2ccccc2c(CNCCCN)c2ccccc12
[1]
  GI50: 27.1 µM (inactive)
[2]
  GI50: 21.2 µM (inactive)
[3]
  GI50: 23.1 µM (inactive)
[4]
  GI50: > 10 µM (inactive)
[5]
  GI50: 19.8 µM (inactive)
[18]
  GI50: 16.9 µM (inactive)
[8]
  GI50: 21.3 µM (inactive)
[9]
  GI50: 32.5 µM (inactive)
[10]
  GI50: 18.2 µM (inactive)
[11]
  GI50: 16.4 µM (inactive)
[12]
  GI50: 22.9 µM (inactive)
[13]
  GI50: 19.2 µM (inactive)
[14]
  GI50: 22 µM
[15]
  GI50: > 10 µM (inactive)
[16]
  GI50: 33.4 µM (inactive)
[17]
  GI50: 13.6 µM (inactive)

## COC(=O)c1c/c(=N\NC(=O)CC(=O)Nc2ccccc2Cl)c2ccccc2o1
[1]
  GI50: > 100 µM (inactive)
[2]
  GI50: > 100 µM (inactive)
[3]
  GI50: > 10 µM (inactive)
[4]
  GI50: > 100 µM (inactive)
[5]
  GI50: > 100 µM (inactive)
[6]
  GI50: 27.7 µM (inactive)
[7]
  GI50: > 100 µM (inactive)
[8]
  GI50: > 100 µM (inactive)
[9]
  GI50: > 100 µM (inactive)
[10]
  GI50: > 100 µM (inactive)
[11]
  GI50: > 100 µM (inactive)
[12]
  GI50: > 100 µM (inactive)
[13]
  GI50: > 100 µM (inactive)
[14]
  GI50: > 100 µM
[15]
  GI50: > 100 µM (inactive)
[16]
  GI50: > 100 µM (inactive)
[17]
  GI50: > 100 µM (inactive)

## Cc1ccc(S(=O)(=O)NC(=O)NCCc2ccccc2)cc1
[1]
  GI50: > 100 µM (inactive)
[2]
  GI50: 25.9 µM (inactive)
[3]
  GI50: > 100 µM (inactive)
[4]
  GI50: > 100 µM (inactive)
[5]
  GI50: 68.2 µM (inactive)
[18]
  GI50: > 100 µM (inactive)
[6]
  GI50: > 100 µM (inactive)
[7]
  GI50: > 100 µM (inactive)
[8]
  GI50: > 100 µM (inactive)
[9]
  GI50: > 100 µM (inactive)
[11]
  GI50: > 100 µM (inactive)
[12]
  GI50: > 100 µM (inactive)
[13]
  GI50: > 100 µM (inactive)
[15]
  GI50: > 100 µM (inactive)
[16]
  GI50: > 100 µM (inactive)
[17]
  GI50: 83.4 µM (inactive)

## OCC(O)C(O)C(O)C(O)c1nnn[nH]1 (stereo unspecified)
[1]
  GI50: 78.9 µM (inactive)
[18]
  GI50: > 100 µM (inactive)
[6]
  GI50: > 100 µM (inactive)
[7]
  GI50: > 100 µM (inactive)
[8]
  GI50: > 100 µM (inactive)
[10]
  GI50: > 100 µM (inactive)
[11]
  GI50: > 100 µM (inactive)
[12]
  GI50: > 100 µM (inactive)
[13]
  GI50: > 100 µM (inactive)
[14]
  GI50: > 100 µM
[15]
  GI50: > 100 µM (inactive)
[16]
  GI50: > 100 µM (inactive)
[17]
  GI50: > 100 µM (inactive)

## Cc1nc(N2N=C(c3ccc(Cl)cc3)CCC2=O)sc1[N+](=O)[O-]
[1]
  GI50: > 100 µM (inactive)
[2]
  GI50: > 100 µM (inactive)
[4]
  GI50: > 100 µM (inactive)
[5]
  GI50: > 100 µM (inactive)
[18]
  GI50: > 100 µM (inactive)
[6]
  GI50: > 100 µM (inactive)
[7]
  GI50: > 100 µM (inactive)
[9]
  GI50: > 100 µM (inactive)
[10]
  GI50: > 100 µM (inactive)
[11]
  GI50: > 100 µM (inactive)
[12]
  GI50: > 100 µM (inactive)
[13]
  GI50: > 100 µM (inactive)
[14]
  GI50: > 100 µM
[15]
  GI50: > 100 µM (inactive)
[16]
  GI50: > 100 µM (inactive)
[17]
  GI50: > 100 µM (inactive)

## COc1cc(Br)c(/C=N\c2cccc3ccc(OS(=O)(=O)c4ccc([N+](=O)[O-])cc4)cc23)cc1OC
[1]
  GI50: 13.8 µM (inactive)
[2]
  GI50: > 100 µM (inactive)
[3]
  GI50: > 100 µM (inactive)
[4]
  GI50: 28.6 µM (inactive)
[18]
  GI50: > 100 µM (inactive)
[6]
  GI50: > 100 µM (inactive)
[7]
  GI50: > 100 µM (inactive)
[8]
  GI50: > 100 µM (inactive)
[10]
  GI50: > 100 µM (inactive)
[11]
  GI50: > 100 µM (inactive)
[12]
  GI50: > 100 µM (inactive)
[13]
  GI50: 33.7 µM (inactive)
[14]
  GI50: 10.5 µM
[16]
  GI50: > 100 µM (inactive)

## Cc1ccc(NC(=O)c2cc3cc(/N=N/c4ccccc4C(=O)O)ccc3oc2=O)cc1
[1]
  GI50: 28.5 µM (inactive)
[2]
  GI50: 20.3 µM (inactive)
[4]
  GI50: 37.5 µM (inactive)
[5]
  GI50: 45.9 µM (inactive)
[18]
  GI50: 30.2 µM (inactive)
[6]
  GI50: 39.4 µM (inactive)
[7]
  GI50: 74 µM (inactive)
[9]
  GI50: 58.9 µM (inactive)
[10]
  GI50: 38.5 µM (inactive)
[11]
  GI50: 49.3 µM (inactive)
[12]
  GI50: > 100 µM (inactive)
[13]
  GI50: 40.9 µM (inactive)
[14]
  GI50: 34.5 µM
[15]
  GI50: 55.3 µM (inactive)
[16]
  GI50: 43.2 µM (inactive)
[17]
  GI50: 39.2 µM (inactive)
